Series [1] deals with T1, dextromethorphan metabolism (demethylation; CYP2D6) in human liver microsomes (Homo sapiens, UniProt P10635).
T1 construct: in the presence of dextromethorphan (2.5 μM) and human liver microsomes (0.5 mg/mL) at 37° C; from tissue; host or cells: human liver microsomes
Briefly: Inhibition of dextromethorphan metabolism in human liver microsomes. Format: in vitro ADME. The method, then: Inhibition of dextromethorphan metabolism was examined using human liver microsomes. […] In addition, the assay contained NADPH (2 mM), MgCl2 (3 mM), and potassium phosphate buffer (50 mM) at pH 7.4. The assay was initiated by adding the NADPH, and incubation was terminated after 10 minutes by addition of acetonitrile. The samples were centrifuged, and the metabolism of dextromethorphan was analyzed by LC/MS/MS. […] The same assay was carried out on a number of NSAIDs.
In general terms: Microsomes from liver hold many membrane-bound enzymes, among them those of drug oxidation.

The next series concerns pain. The conditions noted are these: cited from earlier work.
The conditions of series [2]: extensive metabolizers of dextromethorphan; 'believed to be'; cited from earlier work.

“And” between values parts separate entries of the source, which are not always exact repeats. Equal entries are not always repeated. Where two headings read alike, the source gives them in different places.

As a reminder, the IC50 is the point on the concentration scale where inhibition reaches its midpoint.

T1 sequence (P10635 whole entry): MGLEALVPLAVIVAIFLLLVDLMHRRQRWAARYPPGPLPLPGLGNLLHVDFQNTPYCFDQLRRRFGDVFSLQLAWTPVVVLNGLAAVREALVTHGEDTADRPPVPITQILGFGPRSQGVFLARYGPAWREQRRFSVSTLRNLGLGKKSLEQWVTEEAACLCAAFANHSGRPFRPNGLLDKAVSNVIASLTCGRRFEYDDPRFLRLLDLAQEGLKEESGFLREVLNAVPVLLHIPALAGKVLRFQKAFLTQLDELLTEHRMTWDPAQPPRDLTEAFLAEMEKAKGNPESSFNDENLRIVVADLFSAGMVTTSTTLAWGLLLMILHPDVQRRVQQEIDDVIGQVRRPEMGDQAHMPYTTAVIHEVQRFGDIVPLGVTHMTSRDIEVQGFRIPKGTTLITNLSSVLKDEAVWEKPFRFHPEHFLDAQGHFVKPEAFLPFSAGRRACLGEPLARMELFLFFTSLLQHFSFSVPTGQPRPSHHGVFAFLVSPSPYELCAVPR

Take `COc1ccc2cc(CC(=O)O)ccc2c1` [6-methoxy-2-naphthyl acetic acid]: the IC50 in series [1] (human liver microsomes 0.5 mg/mL, dextromethorphan 2.5 μM, NADPH 2 mM, 37° C., pH 7.4, 10 minutes, LC/MS/MS, read-out: IC50 (inhibition of dextromethorphan metabolism)) was above 1760 µM.

`Cc1ccc(-c2cc(C(F)(F)F)nn2-c2ccc(S(N)(=O)=O)cc2)cc1` [Celecoxib]: the IC50 is 2.6 to 2.9 µM in series [1]; 2.6 µM and 2.9 µM in series [1] (IC50 (inhibition of dextromethorphan metabolism), human liver microsomes 0.5 mg/mL, dextromethorphan 2.5 μM, NADPH 2 mM, 37° C., pH 7.4, 10 minutes, LC/MS/MS). Further, in series [1], the “times as active at inhibiting the metabolism of dextromethorphan as the next best compound” value is on record as “about five”. Moreover, the “times as active at inhibiting the metabolism of dextromethorphan as 6-methoxy-2-naphthyl acetic acid” value in series [1] (human, 10 min, pH 7.4) is “more than 500 times”.

As to `CC(C(=O)O)c1ccc(-c2ccccc2)c(F)c1` (stereo not shown) [Flurbiprofen], the IC50 in series [1] was above 320 µM.

In series [1], `CS(=O)(=O)c1ccc(C2=C(c3ccccc3)C(=O)OC2)cc1` [Rofecoxib] came in with an IC50 of 44.5 µM.

Regarding `CC1=C(CC(=O)O)c2cc(F)ccc2/C1=C\c1ccc([S+](C)[O-])cc1` (stereo not shown) [Sulindac], the IC50 in series [1] is above 36 µM.

The molecule `Cc1onc(-c2ccccc2)c1-c1ccc(S(N)(=O)=O)cc1` [Valdecoxib] came in with an IC50 in series [1] of 15.2 µM.

As to `COc1ccc2c(c1)[C@]13CCCC[C@@H]1[C@H](C2)N(C)CC3` [dextromethorphan, Dextromethorphan], the analgesic efficacy result in the series with pain (double-blind human studies in chronic and neuropathic pain, review of Weinbroum et al.) is reported as “ineffective for the most part”; in the series on pain (patients with facial neuralgias, Gilron et al.), “little or no analgesic efficacy”. The “pain reduction versus placebo” value in the series with pain (patients with diabetic neuropathy and postherpetic neuralgia, Sang et al.) is “did not reduce pain significantly more than placebo”. Moreover, in series [2], the clearance entry is “about 110 L/min”.

Values taken from patent US20230277504A1, “COMPOSITIONS AND METHODS COMPRISING CELECOXIB OR RELATED COMPOUNDS AND DEXTROMETHORPHAN” (ANTECIP BIOVENTURES II LLC, priority 2012, published 2023).
